In patent US20110244506A1, “EGFR DEPENDENT MODULATION OF CHEMOKINE EXPRESSION AND INFLUENCE ON THERAPY AND DIAGNOSIS OF TUMORS AND SIDE EFFECTS THEREOF” (Merck Patent GmbH, priority 2005, published 2011):

Legend:
IP-10, A431 = assay: Secreted IP-10 levels in A431 (Luminex); assay type: cell-based; details: A431, with or without TGFa or TNFa, 24 h, supernatant
Procedure: (§1) Tumor cells were treated with anti-EGFR agents and this was followed by treatment with or without TGF alpha or TNF alpha. Secreted chemokines were evaluated in conditioned medium of tumor cells obtained after 24 h. Evaluation was carried out with the Luminex bead technology.
(§2) After 24 h, cellular supernatants were collected and levels of IP-10 were quantified using the Luminex technology.

ERK1/2 (Thr 202/204) = assay: Western blotting of ERK1/2 phosphorylation in keratinocytes; details: with or without TGFa or TNFa, 24 h
COX-2 = assay: Western blotting of COX-2 protein in keratinocytes; assay type: cell-based; details: with or without TGFa or TNFa, 24 h
Procedure: (§3) In these experiments keratinocytes were treated with different concentrations of anti-EGFR inhibitors followed by treatment with or without TGF alpha or TNF alpha for, approximately, 24 h. Effects of anti-EGFR inhibitors were evaluated using Western blotting.
(§4) After 24 h, cells were lysed and analysed by Western blotting.

RANTES, A431 = assay: Secreted RANTES levels in A431 (Luminex); assay type: cell-based; details: A431, with or without TGFa or TNFa, 24 h, supernatant
Procedure: as §1
(§5) After 24 h, cellular supernatants were collected and levels of RANTES were quantified using the Luminex technology.

STAT3 = assay: Western blotting of STAT3 phosphorylation in keratinocytes; assay type: cell-based; details: with or without TGFa or TNFa, 24 h
Procedure: as §3, §4

IL-8, A431 = assay: Secreted IL-8 levels in A431 (Luminex); assay type: cell-based; details: for secreted IL-8 levels: A431, with or without TGFa or TNFa, 24 h, supernatant
Procedure: as §1
(§6) After 24 h, cellular supernatants were collected and levels of IL-8 were quantified using the Luminex technology.
(§7) Cells were treated with 100 ng/ml Cmab or Mmab and stimulated with 100 ng/ml TGFa; number of experiments=1

RANTES, keratinocytes = assay: Secreted RANTES levels in keratinocytes (Luminex); assay type: cell-based; details: with or without TGFa or TNFa, 24 h, supernatant
Procedure: (§8) Evaluations were carried out with the Luminex bead technology. In these experiments keratinocytes were treated with anti-EGFR inihibitors followed by treatment with or without TGF alpha or TNF alpha.
as §5

IL-8, keratinocytes = assay: Secreted IL-8 levels in keratinocytes (Luminex); assay type: cell-based; details: with or without TGFa or TNFa, 24 h, supernatant
Procedure: as §8, §6

IP-10, keratinocytes = assay: Secreted IP-10 levels in keratinocytes (Luminex); assay type: cell-based; details: with or without TGFa or TNFa, 24 h, supernatant
Procedure: as §8, §2

IL-8, PC-3 = assay: Secreted IL-8 levels in PC-3 (Luminex); assay type: cell-based; details: 100 ng/ml antibody, stimulated with 100 ng/ml TGFa, number of experiments=1
Procedure: as §6, §7

IL-8, MCF-7 = assay: Secreted IL-8 levels in MCF-7 (Luminex); assay type: cell-based; details: 100 ng/ml antibody, stimulated with 100 ng/ml TGFa, number of experiments=1
Procedure: as §6, §7

IL-8, HT29 = assay: Secreted IL-8 levels in HT29 (Luminex); assay type: cell-based; details: 100 ng/ml antibody, stimulated with 100 ng/ml TGFa, number of experiments=1
Procedure: as §6, §7

EGFR (Tyr 1068) = EGFR (Tyr 1068) (Homo sapiens, UniProt P00533); assay: Western blotting of EGFR phosphorylation in keratinocytes; details: with or without TGFa or TNFa, 24 h
IL-8, U87MG = assay: Secreted IL-8 levels in U87MG (Luminex); assay type: cell-based; details: 100 ng/ml antibody, stimulated with 100 ng/ml TGFa, number of experiments=1
Procedure: as §6, §7

[1] = test system: EGFR-dependent signaling cascades, tumor cell lines such as A431; assay: EGFR-dependent signaling cascades in tumor cell lines; assay type: cell-based; details: various tumor cell lines such as A431
[2] = test system: IL-8, tumor cell lines (DiFi, HT29, A431, MCF-7, PC-3 and U87 MG); assay: Secreted IL-8 levels in different tumor cell lines (Luminex); assay type: cell-based; details: stimulated with TGFa, 24 h
Procedure: as §6

IL-8, DiFi = assay: Secreted IL-8 levels in DiFi (Luminex); assay type: cell-based; details: 100 ng/ml antibody, stimulated with 100 ng/ml TGFa, number of experiments=1
Procedure: as §6, §7

Compound	secreted IP-10 levels (IP-10, A431)	phosphorylation of ERK1/2 (Thr 202/204) (ERK1/2 (Thr 202/204))	expression of COX-2 (COX-2)	secreted RANTES levels (RANTES, A431)	phosphorylation of STAT3 (STAT3)	secreted IL-8 levels (IL-8, A431)	secreted RANTES levels (RANTES, keratinocytes)	secreted IL-8 levels (IL-8, keratinocytes)	secreted IP-10 levels (IP-10, keratinocytes)	IL-8 levels (IL-8, PC-3) [% control]	IL-8 levels (IL-8, MCF-7) [% control]	IL-8 levels (IL-8, HT29) [% control]	phosphorylation of EGFR (Tyr 1068) (EGFR (Tyr 1068))	IL-8 levels (IL-8, A431; A431, 100 ng/ml antibody, stimulated with 100 ng/ml TGFa, number of experiments=1) [% control]	IL-8 levels (IL-8, U87MG) [% control]	EGFR-dependent signaling cascades [1]	secreted IL-8 levels [2]	IL-8 levels (IL-8, DiFi) [% control]
COc1cc2ncnc(Nc3ccc(F)c(Cl)c3)c2cc1OCCCN1CCOCC1 [Iressa, gefitinib, reference compound]	up-regulated IP-10 in a dose-dependent manner	prevented phosphorylation	induced expression of COX-2	up-regulated RANTES in a dose-dependent manner	prevented phosphorylation of STAT3	down-regulated IL-8 in a dose-dependent manner	up-regulated RANTES in a dose-dependent manner	down-regulated IL-8 in a dose-dependent manner	up-regulated IP-10 in a dose-dependent manner									
Matuzumab: humanized monoclonal antibody 425 directed to the EGF receptor	up-regulated IP-10 in a dose-dependent manner	prevented phosphorylation	induced expression of COX-2	up-regulated RANTES in a dose-dependent manner	prevented phosphorylation of STAT3	down-regulated IL-8 in a dose-dependent manner	up-regulated RANTES in a dose-dependent manner	down-regulated IL-8 in a dose-dependent manner	up-regulated IP-10 in a dose-dependent manner	76	49	30	prevented phosphorylation	15	58	interferes with EGFR-dependent signaling cascades	down-regulated IL-8 in all tumor cell lines investigated in a dose-dependent manner	28
